Results: US7067619B2, “Integrin-binding peptides” (La Jolla Cancer Research Foundation, priority 1993, dated 2006)
Bridge positions count the residues as written; N and C are the ends. Peptide text beside a SMILES is read from it.

Experiments:
[1] = molecular target: T1, α5β1 integrin (Homo sapiens, UniProt P05556+P08648); experiment: Inhibition of 125I-fibronectin binding to α5β1 integrin by competing peptides; settings: 1 hour, compared with cyclic CRGDC peptide, FIG. 1
T1 construct: The αvβ3, αvβ5 and α5β1 integrins were isolated from human placental extracts; from tissue; host or cells: human placenta
T1 sequence (P08648 42-894 limits assumed): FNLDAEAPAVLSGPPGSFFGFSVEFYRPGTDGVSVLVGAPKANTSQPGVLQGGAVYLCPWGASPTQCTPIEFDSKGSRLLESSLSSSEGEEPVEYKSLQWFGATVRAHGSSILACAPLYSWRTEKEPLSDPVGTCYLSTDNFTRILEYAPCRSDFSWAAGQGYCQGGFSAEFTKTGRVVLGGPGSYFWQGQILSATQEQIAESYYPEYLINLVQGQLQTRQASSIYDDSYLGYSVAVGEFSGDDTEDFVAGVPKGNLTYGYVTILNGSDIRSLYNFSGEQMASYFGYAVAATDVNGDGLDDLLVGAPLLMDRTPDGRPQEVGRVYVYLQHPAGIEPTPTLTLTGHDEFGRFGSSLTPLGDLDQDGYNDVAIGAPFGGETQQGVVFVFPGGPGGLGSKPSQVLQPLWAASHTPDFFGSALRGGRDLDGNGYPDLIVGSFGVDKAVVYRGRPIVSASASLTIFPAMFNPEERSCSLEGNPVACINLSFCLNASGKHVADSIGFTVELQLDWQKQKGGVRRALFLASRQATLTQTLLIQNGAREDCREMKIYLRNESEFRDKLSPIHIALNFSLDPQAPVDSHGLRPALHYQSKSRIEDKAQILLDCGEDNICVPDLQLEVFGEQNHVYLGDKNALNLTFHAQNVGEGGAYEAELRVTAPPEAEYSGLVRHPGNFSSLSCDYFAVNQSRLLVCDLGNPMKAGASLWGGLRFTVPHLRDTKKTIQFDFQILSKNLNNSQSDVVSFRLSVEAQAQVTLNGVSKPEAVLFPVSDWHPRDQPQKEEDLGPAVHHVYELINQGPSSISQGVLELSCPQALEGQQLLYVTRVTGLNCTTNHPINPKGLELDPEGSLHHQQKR
T1 sequence (P08648 895-1049 partner limits assumed): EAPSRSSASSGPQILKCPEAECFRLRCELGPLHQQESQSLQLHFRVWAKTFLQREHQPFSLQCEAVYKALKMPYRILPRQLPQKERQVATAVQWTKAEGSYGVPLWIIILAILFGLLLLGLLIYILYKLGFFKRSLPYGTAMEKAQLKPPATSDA
T1 sequence (P05556 21-798): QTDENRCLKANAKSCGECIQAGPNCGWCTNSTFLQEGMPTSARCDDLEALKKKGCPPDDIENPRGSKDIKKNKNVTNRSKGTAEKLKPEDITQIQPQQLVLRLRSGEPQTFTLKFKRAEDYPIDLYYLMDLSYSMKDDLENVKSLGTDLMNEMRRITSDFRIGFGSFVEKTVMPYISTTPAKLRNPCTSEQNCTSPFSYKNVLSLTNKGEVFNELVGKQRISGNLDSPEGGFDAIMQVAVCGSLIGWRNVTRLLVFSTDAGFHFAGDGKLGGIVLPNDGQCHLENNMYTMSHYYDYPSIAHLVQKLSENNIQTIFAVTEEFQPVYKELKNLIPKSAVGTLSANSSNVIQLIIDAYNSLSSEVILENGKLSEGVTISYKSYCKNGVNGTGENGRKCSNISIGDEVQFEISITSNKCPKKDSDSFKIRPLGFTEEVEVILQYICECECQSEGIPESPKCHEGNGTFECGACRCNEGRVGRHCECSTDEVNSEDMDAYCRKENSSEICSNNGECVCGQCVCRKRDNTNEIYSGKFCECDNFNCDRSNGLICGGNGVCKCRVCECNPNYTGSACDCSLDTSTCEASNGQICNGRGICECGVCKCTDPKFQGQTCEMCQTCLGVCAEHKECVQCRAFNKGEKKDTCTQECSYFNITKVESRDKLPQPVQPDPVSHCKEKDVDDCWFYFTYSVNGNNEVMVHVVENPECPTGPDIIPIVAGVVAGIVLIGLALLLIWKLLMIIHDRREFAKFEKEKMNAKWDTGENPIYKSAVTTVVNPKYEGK
Protocol: (§1) In addition, most of the phage-binding activity in the αvβ3 preparation was captured into microliter wells coated with antibodies against the αv or β3 subunits as described previously (Koivunen et al., J. Biol. Chem., 268:20205–10 (1993). The αIIbβ3 integrin was isolated from outdated platelets (Pytela et al., Science, 231:1559–1562 (1986)).
The α5β1 integrin was bound to α5 specific antibody-coated wells by incubating 300 μl of a placental extract per well in TBS buffer containing 0.1 M octylglucoside, 1 mM CaCl2, 1 mM MnCl2 and proteinase inhibitors overnight at 4° C., (Koivunen et al., J. Biol. Chem., 268: 20205–20210 (1993). Alternatively, the α5β1 integrin was directly coated on plastic as described above.
The wells were extensively washed with TBS containing 0.1% NP-40. ^125I-labeled fibronectin (100,000 cpm per well) was incubated in the presence of competing peptides for 1 hour at 25° C. in 100 μl volume of TBS containing 0.1% NP-40 and 1 mM MnCl2, as described by Koivunen et al., J. Biol. Chem. 268: 20205–20210 (1993). After repeated washing, the bound radioactivity was quantitated with a gamma counter.
Initially, […] [SEQ ID NO:12] was examined for its ability to inhibit binding of fibronectin, which is the natural ligand for α5β1. […] Following incubation, the wells were washed and bound radioactivity was determined with a gamma counter.

[2] = test system: α5β1 integrin; experiment: Inhibition of attachment of CHO C11 cells to fibronectin; assay type: cell-based, Chinese hamster
From the text: (§2) Cell lines expressing different integrins were used to examine peptide inhibition of integrin function. A human melanoma cell line, C8161, a fibroblast cell line, WI-38, and an osteosarcoma cell line, MG-63 (described by Seftor et al., Canc. Res., 53:3411–3415 (1993); Vogel et al., J. Biol. Chem., 265:5934–5937 (1990); and Pytela et al. (1985), supra, respectively, each of which is incorporated herein by reference) attach to fibronectin through α5β1 integrin, as does B2/α27, a CHO cell line transfected with human α5. B2/C1, the control parental CHO line (Bauer et al., J. Cell. Biol. 116:477–487 (1992), which is incorporated herein by reference), attaches via […]. CHO cells C11 and NIH 3T3 cells express the endogenous Chinese hamster and mouse α5β1 integrins, respectively. The human melanoma cells, A375-M, attach to fibronectin through both α5β1 and α4β1 integrins (Mould et al., J. Biol. Chem. 265:4020–4024 (1990), which is incorporated herein by reference). CHO cell line B2/v7 express the αvβ1 integrin (Zhang et al., J. Cell. Biol. 122:235–242 (1993), which is incorporated herein by reference). […]
Cell lines expressing fibronectin-binding integrins were used to determine peptide activities against these integrins in the cell attachment assay described by Ruoslahti et al., Meth. […] Bound cells were quantitated by staining with 0.1% amido black.

[3] = test system: αvβ1 integrin; experiment: Inhibition of αvβ1-mediated cell attachment to fibronectin; assay type: cell-based; settings: less active, FIG. 6
From the text: as §2
Cell lines expressing fibronectin-binding integrins were used to determine peptide activities against these integrins in the cell attachment assay described by Ruoslahti et al., Meth. […] Bound cells were quantitated by staining with 0.1% amido black. […]

[4] = test system: α5β1 integrin; experiment: Cell attachment to immobilized […] peptide (B2/α27 vs B2/Cl cells); assay type: cell-based, human
From the text: Cell lines expressing fibronectin-binding integrins were used to determine peptide activities against these integrins in the cell attachment assay described by Ruoslahti et al., Meth. Enzymol., 144:803–831 (1982), which is incorporated herein by reference. Human plasma fibronectin was iodinated as described by Morla and Ruoslahti, J. Cell Biol., 118:421–429 (1992), which is incorporated herein by reference. Vitronectin was obtained from Telios Pharmaceuticals (San Diego, Calif.). […] Peptide was coated on plastic by incubating at 37° C. for 2 hours in phosphate buffered saline containing 0.25% glutaraldehyde to crosslink the peptide. Free binding sites on the plastic were blocked using BSA. Approximately 1×10^5 cells per well were allowed to attach for 1 hour in the presence or absence of competing peptides. Bound cells were quantitated by staining with 0.1% amido black.
In addition to the inhibition of cell attachment to natural ligands, attachment and inhibition assays were performed using the […] [SEQ ID NO:6] peptide as substrate. The microliter well were coated with […] [SEQ ID NO:6] using glutaraldehyde as described above. Briefly, peptide was coated on plastic by incubating at 37° C. for 2 hours in phosphate buffered saline containing 0.25% glutaraldehyde to crosslink the peptide and free binding sites on the plastic were blocked using BSA. The wells were then saturated with BSA followed by the addition of 50,000 B2/α27 or B2/Cl cells in the presence or absence of the indicated inhibitor. […] Bound cells were quantitated by staining with 0.1% amido black.
Target sequence in this assay (P08648 42-894 limits assumed): as the sequence (P08648 42-894 limits assumed) above
Target sequence in this assay (P08648 895-1049 limits assumed): as the sequence (P08648 895-1049 partner limits assumed) above

[5] = molecular target: αvβ5 integrin (Homo sapiens, UniProt P06756+P18084); experiment: Inhibition of peptide-displaying phage binding to αvβ5 integrin by synthetic peptides; design: The αvβ3, αvβ5 and α5β1 integrins were isolated from human placental extracts; from tissue; host or cells: human placenta; settings: more potent than *CRGDC*; FIG. 10
Chain of αvβ5 integrin (P06756 31-889 limits assumed): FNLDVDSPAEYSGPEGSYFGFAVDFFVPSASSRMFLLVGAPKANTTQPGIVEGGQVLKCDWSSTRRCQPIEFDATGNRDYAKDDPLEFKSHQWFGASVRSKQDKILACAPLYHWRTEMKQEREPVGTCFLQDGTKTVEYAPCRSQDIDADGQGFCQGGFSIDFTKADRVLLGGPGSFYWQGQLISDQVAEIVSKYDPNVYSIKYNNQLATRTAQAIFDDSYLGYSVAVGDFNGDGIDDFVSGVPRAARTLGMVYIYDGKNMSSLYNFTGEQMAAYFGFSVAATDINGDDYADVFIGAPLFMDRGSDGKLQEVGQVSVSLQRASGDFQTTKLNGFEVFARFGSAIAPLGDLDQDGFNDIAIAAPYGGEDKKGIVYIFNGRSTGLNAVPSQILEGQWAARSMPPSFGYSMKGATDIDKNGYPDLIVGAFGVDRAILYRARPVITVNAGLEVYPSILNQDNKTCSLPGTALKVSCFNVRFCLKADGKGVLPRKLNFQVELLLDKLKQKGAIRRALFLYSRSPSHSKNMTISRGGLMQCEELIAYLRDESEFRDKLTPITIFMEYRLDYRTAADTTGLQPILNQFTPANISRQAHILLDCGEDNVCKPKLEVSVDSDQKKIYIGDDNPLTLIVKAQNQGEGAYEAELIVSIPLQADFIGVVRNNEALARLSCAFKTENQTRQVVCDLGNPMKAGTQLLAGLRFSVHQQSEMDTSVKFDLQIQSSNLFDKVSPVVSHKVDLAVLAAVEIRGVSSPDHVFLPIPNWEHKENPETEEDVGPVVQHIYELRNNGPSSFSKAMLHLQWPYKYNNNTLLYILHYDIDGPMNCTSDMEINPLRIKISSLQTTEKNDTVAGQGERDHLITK
Chain of αvβ5 integrin (P06756 891-1048 partner limits assumed): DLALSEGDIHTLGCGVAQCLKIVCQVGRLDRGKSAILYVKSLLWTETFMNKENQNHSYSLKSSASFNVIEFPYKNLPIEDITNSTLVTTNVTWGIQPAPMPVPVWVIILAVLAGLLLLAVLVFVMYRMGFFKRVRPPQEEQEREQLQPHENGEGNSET
Chain of αvβ5 integrin (P18084 24-799): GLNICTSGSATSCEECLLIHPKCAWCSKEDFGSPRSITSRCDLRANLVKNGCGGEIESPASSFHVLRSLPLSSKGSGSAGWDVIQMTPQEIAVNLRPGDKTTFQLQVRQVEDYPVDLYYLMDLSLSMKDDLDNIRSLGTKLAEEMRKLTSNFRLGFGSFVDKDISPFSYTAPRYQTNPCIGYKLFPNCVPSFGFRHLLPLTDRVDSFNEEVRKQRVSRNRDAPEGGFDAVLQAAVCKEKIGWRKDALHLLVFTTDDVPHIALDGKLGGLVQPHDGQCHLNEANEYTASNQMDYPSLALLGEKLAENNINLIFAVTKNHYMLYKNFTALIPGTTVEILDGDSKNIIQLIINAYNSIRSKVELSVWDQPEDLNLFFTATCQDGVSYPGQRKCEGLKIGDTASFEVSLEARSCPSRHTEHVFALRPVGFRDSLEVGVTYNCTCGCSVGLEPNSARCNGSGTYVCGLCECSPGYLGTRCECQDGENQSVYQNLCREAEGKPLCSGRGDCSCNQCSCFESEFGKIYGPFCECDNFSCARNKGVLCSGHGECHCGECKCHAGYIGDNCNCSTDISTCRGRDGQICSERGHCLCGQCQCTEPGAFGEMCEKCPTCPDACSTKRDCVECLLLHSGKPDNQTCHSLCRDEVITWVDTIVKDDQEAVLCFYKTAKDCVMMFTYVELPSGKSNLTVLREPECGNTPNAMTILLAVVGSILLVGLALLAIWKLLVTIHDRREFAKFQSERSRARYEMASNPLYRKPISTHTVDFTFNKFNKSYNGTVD
Protocol: Phage containing the […] [SEQ ID NO:10] sequence were incubated for 1 hour in integrin-coated wells in the presence of the competing peptides or dimethyl sulfoxide solvent as a control. The bound phage were determined as described herein.
as §1
Binding of individual cloned phage to integrins was studied in microliter wells as described in Koivunen et al., J. Cell. Biol., 124:373–380 (1994). Phage binding to α5β1 and αvβ3 were assayed in TBS buffer containing 1% BSA and 1 mM MnCl2 and binding to αvβ5 in the presence of 1 mM CaCl2. Phage that were bound were determined by their ability to infect F-pilus positive K91kan bacteria. Bacteria were grown overnight in microliter wells in the presence of tetracycline and the absorbance indicative of bacterial growth was read at 600 nm with an ELISA plate reader.

Compound	inhibition of fibronectin binding to α5β1 [1]	blocking of attachment of CHO C11 cells to fibronectin [2]	activity against αvβ1 relative to CELRGDGWC [3]	activity against αvβ1 relative to the cyclic RGD peptide [3]	promotion of cell adhesion by immobilized peptide ([4]; B2/α27 compared with B2/Cl cells, FIG. 8)	attachment of cell lines lacking these integrins or expressing non-human α5β1 to immobilized peptide ([4]; immobilized peptide)	inhibition of B2/α27 attachment to immobilized RRETAWA-containing peptide ([4]; inhibitor at 1 mM, FIG. 8)	potency in inhibiting binding of RGD-containing phage to αvβ5 relative to *CRGDC* [5]
GACRRETAWACGA	equally as well as the cyclic CRGDC	could not block	about 40 ×	greater than 100 ×	promoted α5β1-mediated adhesion	did not attach	inhibited	–
C[C@H](N)C(=O)N[C@H]1CSSC[C@@H](C(=O)NCC(=O)O)NC(=O)[C@H](Cc2ccccc2)NC(=O)[C@@H]2CSSC[C@H](NC(=O)[C@H](CC(=O)O)NC1=O)C(=O)N[C@@H](CCCNC(=N)N)C(=O)NCC(=O)N[C@@H](CC(=O)O)C(=O)N2 (H-ACDCRGDCFCG-OH; disulfide 2-10, 4-8)	–	–	–	–	–	–	–	10 fold
